Laboratory results: patent US10144758B2, “Deuterated bile acids” (Metselex, Inc., priority 2013, dated 2018)

System: primary rat hepatocytes
Test: DCA-induced apoptosis, nuclear fragmentation by Hoechst staining
Format: cell-based
Settings: for prevention of nuclear fragmentation: 50 μM DCA, 100 μM compound pretreatment, FIG. 7C
Protocol: Primary rat hepatocytes were isolated from male rats (100-150 grams) by collagenase perfusion (as described by Solá S, et al., 2003, Journal of Biological Chemistry 278: 48831-48838)). Briefly, rats were anesthetized with phenobarbital sodium (100 mg/kg body weight) injected into the peritoneal cavity. After administration of heparin (200 units/kg body weight) in the tail vein, the animal's abdomen was opened and the portal vein exposed and cannulated. The liver was then perfused at 37° C. in situ with a calcium-free Hanks' Balanced Salt Solution (HBSS) for about 10 minutes, and then with 0.05% collagenase type IV in calcium-present HBSS for another 10 minutes. Hepatocyte suspensions were obtained by passing collagenase-digested livers through 125 μm gauze and washing cells in Complete William's E medium (William's E medium, Sigma-Aldrich Corp., St Louis, Mo., USA) supplemented with 26 mM sodium bicarbonate, 23 mM HEPES, 0.01 units/mL insulin, 2 mM L-glutamine, 10 nM dexamethasone, 100 units/mL penicillin, and 10% heat-inactivated fetal bovine serum (Invitrogen Corp., Carlsbad, Calif., USA). Viable primary rat hepatocytes were enriched by low-speed centrifugation at 200 g for 3 minutes. Cell viability was determined by trypan blue exclusion and was typically 80-85%. After isolation, hepatocytes were resuspended in Complete William's E medium and plated on PrimariaTM tissue culture dishes (BD Biosciences, San Jose, Calif., USA) at 5×10^4 cells/cm^2. Cells were maintained at 37° C. in a humidified atmosphere of 5% CO2 for 6 hours to allow attachment. […] Fluorescence was visualized using an Axioskop fluorescence microscope (Carl Zeiss GmbH). Blue-fluorescent nuclei were scored blindly and categorized according to the condensation and staining characteristics of chromatin. […] Five random microscopic fields per sample containing approximately 150 nuclei were counted, and mean values expressed as the percentage of apoptotic nuclei. […] Results are expressed as means±SEM of at least three experiments. *p<0.01 from control; § p<0.05 and †p<0.01 from respective DCA.

Row | Compound | prevention of nuclear fragmentation [%] | more effective than UDCA at reducing the percentage of apoptotic cells (DCA, Compound 5 versus UDCA) [%]
1 | 7,8-[^2H]-3α,7α-dihydroxy-5β-cholan-24-oic acid/7-[^2H]-3α,7α-dihydroxy-5β-cholan-24-oic acid [Compound 5] | ~65 | ~15
2 | C[C@H](CCC(=O)O)[C@H]1CC[C@H]2[C@@H]3[C@@H](O)C[C@@H]4C[C@H](O)CC[C@]4(C)[C@H]3CC[C@]12C [UDCA, Ursodeoxycholic acid, reference compound] | ~50 | –
